In US5128331A, “Method for lowering plasma lipid levels or blood pressure” (priority 1988, dated 1992):
“Also recorded” adds a separate entry of the source. Like-named read-outs stand apart in the source and are kept apart here.

Legend:
Type in all cases: in vivo
mice of the OF1 strain = test: Hypolipidemic activity: plasma cholesterol and plasma triglycerides in mice fed compound in chow; conditions: for change in vivo at 180 mg/kg: Mus musculus, feed or water, 240 h
Procedure: With the goal of finding new drugs which might be hypolipidemic, the new diphosphonates described in this patent application were administered orally to mice. This rodent species has plasma lipid level relatively close to man (generally greater than 150 mg/dl). For example, in mice receiving a normal diet the plasma cholesterol and triglyceride levels are in the range of 100 mg/dl, whereas for rat the comparative values are close to 50 mg/dl.
In every screening experiment, 30 mice of the OF1 strain weighing 25 to 35 g were divided into 5 groups of 6 animals each. Four groups received the compounds to be tested, or the reference drugs, the fifth group served as control. Compounds were dissolved in diethyl ether, and solution was added to the pelleted food and the ether was evaporated.
All compounds were tested at the final concentration of 0.1% in animal chow, equivalent to a daily intake of about 180 mg/kg. This diet was fed for 10 days, then after an overnight fasting the animals were sacrified by decapitation under ether anesthesia. Blood samples were collected in EDTA containing tubes.
Plasma cholesterol and plasma triglycerides were measured by enzymatic methods (Ames kit No. 6376 and No. 6630).

[1] = test system: spontaneously hypertensive rat (SHR); test: Oral hypotensive activity in spontaneously hypertensive rats (SHR); conditions: for Percent change in blood pressure: 2 hours post dose, Table 5
Procedure: The spontaneously hypertensive rat (SHR) is a well established animal model of human arterial hypertension.
In screening experiments various gem-diphosphonates were dissolved in Tween-80 and administered orally to SH rats. Blood pressure was monitored hourly using a tailcuff method.

rat paw oedema = test: Anti-inflammatory activity: kappa carrageenan rat paw oedema model; conditions: for Inhibition of rat right hind paw volume increase, % Change from control: 4 hours post oedema induction, test compounds 100 mg/kg, indomethacin 30 mg/kg by gavage 1 hour prior; for anti-inflammatory activity (in words): rat paw oedema, 4 hours
Procedure: The effect of four selected diphosphates was investigated on the inflammatory response to kappa carrageenan in the rat paw oedema model. Eight male rats were employed per group. Oedema was induced in the right hind paw of each animal by a single injection into the plantar aponeurosis of 0.1 ml of a 1% w/v of kappa carrageena solution dissolved in 0.9% NaCl. The test compounds (100 mg/kg) and reference drug (indomethacin 30 mg/kg) were administered by gavage 1 hour prior to induction of oedema by carrageanan injection.
The volume of the right paw was measured for each animal at 0, 1, 2.5 and 4 hours after carrageenan injection (only 4 hour values are reported.

[2] = read-out: Cholesterol (% control)
[3] = read-out: Triglycerides (% control)
[4] = mice, 0.1% in animal chow (about 180 mg/kg daily), 10 days, Table 3, given as change from control, read-out: Cholesterol (% control)
[5] = mice, 0.1% in animal chow (about 180 mg/kg daily), 10 days, Table 3, given as change from control, read-out: Triglycerides (% control)

CC(C)OP(=O)(OC(C)C)C(Cc1cc(C(C)(C)C)c(O)c(C(C)(C)C)c1)P(=O)(OC(C)C)OC(C)C [Compound 6]
change in vivo at 180 mg/kg (mice of the OF1 strain; [2]): -37%
change in vivo at 180 mg/kg (mice of the OF1 strain; [3]): -34%
hypocholesterolemic activity (in words) (mice of the OF1 strain; mice, 0.1% in chow, 10 days): hypocholesterolemic
hypotriglyceridemia (in words) (mice of the OF1 strain; mice, 0.1% in chow, 10 days): significant hypotriglyceridemia
hypotensive potency compared with reference drugs (in words) [1]: as potent as the reference drugs
Percent change in blood pressure [1]: -64%

CCCCOP(=O)(OCCCC)C(Cc1cc(C(C)(C)C)c(O)c(C(C)(C)C)c1)P(=O)(OCCCC)OCCCC [Compound 7, Tetrabutyl 2-(3,5-ditertiary-4-hydroxyphenyl)-ethylidene-1,1-diphosphonate]
change in vivo at 180 mg/kg (mice of the OF1 strain; [2]): -23%
change in vivo at 180 mg/kg (mice of the OF1 strain; [3]): -15%
hypocholesterolemic activity (in words) (mice of the OF1 strain; mice, 0.1% in chow, 10 days): hypocholesterolemic
hypotriglyceridemia (in words) (mice of the OF1 strain; mice, 0.1% in chow, 10 days): significant hypotriglyceridemia
hypotensive potency compared with reference drugs (in words) [1]: as potent as the reference drugs
Percent change in blood pressure [1]: -30%

CCCCOP(=O)(OCCCC)C(Cc1cc(C(C)(C)C)c(O)c(C(C)(C)C)c1)P(=O)(OCC)OCC (stereo not drawn) [Compound 18]
change in vivo at 180 mg/kg (mice of the OF1 strain; [2]): -31%
change in vivo at 180 mg/kg (mice of the OF1 strain; [3]): 60%
hypocholesterolemic activity (in words) (mice of the OF1 strain; mice, 0.1% in chow, 10 days): hypocholesterolemic
hypotensive potency compared with reference drugs (in words) [1]: as potent as the reference drugs
Percent change in blood pressure [1]: -41%

CC(C)(C)c1cc(C=C(P(=O)(O)O)P(=O)(O)O)cc(C(C)(C)C)c1O [Compound 36]
change in vivo at 180 mg/kg (mice of the OF1 strain; [4]): -9%
change in vivo at 180 mg/kg (mice of the OF1 strain; [5]): -5%
Inhibition of rat right hind paw volume increase, % Change from control (rat paw oedema): -25.0 % Change from control
anti-inflammatory activity (in words) (rat paw oedema): significant inhibitory activities

COc1ccc2c(c1)c(CC(=O)O)c(C)n2C(=O)c1ccc(Cl)cc1 [Indomethacin, reference compound]
Inhibition of rat right hind paw volume increase, % Change from control (rat paw oedema): -92.3 % Change from control
anti-inflammatory activity (in words) (rat paw oedema): prevented completely the increase in paw volume

CCOP(=O)(OCC)C(Cc1cc(C(C)(C)C)c(O)c(C(C)(C)C)c1)P(=O)(OCC)OCC [Compound 4, Tetraethyl 2-(3,5-ditertiarybutyl-4-hydroxyphenyl)-ethylidene-1,1-diphosphonate]
change in vivo at 180 mg/kg (mice of the OF1 strain; [2]): -12%
change in vivo at 180 mg/kg (mice of the OF1 strain; [3]): -1%
hypocholesterolemic activity (in words) (mice of the OF1 strain; mice, 0.1% in chow, 10 days): hypocholesterolemic
Inhibition of rat right hind paw volume increase, % Change from control (rat paw oedema): +1.5 % Change from control
hypotensive potency compared with reference drugs (in words) [1]: as potent as the reference drugs
Percent change in blood pressure [1]: -34%

CC(C)(C)c1cc(CC(P(=O)(O)O)P(=O)(O)O)cc(C(C)(C)C)c1O [Compound 8, 2-(3,5-ditertiarybutyl-4-hydroxyphenyl)-ethylidene-1,1-diphosphonic acid]
change in vivo at 180 mg/kg (mice of the OF1 strain; [4]): -2%
change in vivo at 180 mg/kg (mice of the OF1 strain; [5]): 19%
Inhibition of rat right hind paw volume increase, % Change from control (rat paw oedema): -54.2 % Change from control
anti-inflammatory activity (in words) (rat paw oedema): significant inhibitory activities; also recorded: anti-inflammatory

CCOP(=O)(OCC)C(=Cc1cc(C(C)(C)C)c(O)c(C(C)(C)C)c1)P(=O)(OCC)OCC [Compound 33, Tetraethyl 2-(3,5-ditertiarybutyl-4-hydroxyphenyl)-ethenylidene-1,1-diphosphonate]
change in vivo at 180 mg/kg (mice of the OF1 strain; [2]): -40%
change in vivo at 180 mg/kg (mice of the OF1 strain; [3]): -21%
hypocholesterolemic activity (in words) (mice of the OF1 strain; mice, 0.1% in chow, 10 days): hypocholesterolemic
hypocholesterolemic potency (plasma cholesterol change) (mice of the OF1 strain; mice, 0.1% in chow, 10 days): -40%
hypotriglyceridemia (in words) (mice of the OF1 strain; mice, 0.1% in chow, 10 days): significant hypotriglyceridemia
Inhibition of rat right hind paw volume increase, % Change from control (rat paw oedema): -5.8 % Change from control
